{"source": "paper PMC4408175", "about": "“Functional and structural diversity in GH62 α-L-arabinofuranosidases from the thermophilic fungus Scytalidium thermophilum” (Microbial Biotechnology, 2014)", "target": "T1, Abf62C (Mycothermus thermophilus, UniProt A0A059U759)", "T1 construct": "gene AXH62C; N-terminal His tag, pET15b LIC, E. coli BL21(DE3) Gold; monomer", "T1 sequence (A0A059U759 entry or part of it)": "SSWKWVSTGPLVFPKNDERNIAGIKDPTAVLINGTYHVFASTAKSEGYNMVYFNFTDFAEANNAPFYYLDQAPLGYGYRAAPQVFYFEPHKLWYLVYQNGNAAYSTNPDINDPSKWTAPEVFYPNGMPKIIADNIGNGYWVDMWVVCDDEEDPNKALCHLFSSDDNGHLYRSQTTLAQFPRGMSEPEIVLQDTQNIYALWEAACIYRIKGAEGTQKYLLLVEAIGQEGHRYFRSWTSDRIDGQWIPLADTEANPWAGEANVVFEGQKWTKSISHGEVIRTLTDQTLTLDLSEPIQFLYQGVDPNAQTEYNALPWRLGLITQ", "assay": "X-ray crystal structure of complex, […] Å", "assay_type": "binding", "details": "co-crystals, 2 mM preincubation, 20 mM xylotriose in reservoir, 22 °C; active site subsites +2NR, +1, +2R; no calcium"}
{"smiles": "OC1OC[C@@H](O[C@@H]2OC[C@@H](O[C@@H]3OC[C@@H](O)[C@H](O)[C@H]3O)[C@H](O)[C@H]2O)[C@H](O)[C@H]1O", "note": "(stereo partly shown) [xylotriose]", "values": [{"measurement": "X-ray crystal structure of complex, 1.48 Å", "result": "Abf62C-xylotriose complex have been deposited in the Research Co-laboratory for Structural Bioinformatics Protein Data Bank"}]}
